The results in this text go back to PubChem BioAssay AID1259407 (Chemical Carcinogenesis Research Information System (CCRIS), 2018).

Molecules are shown by their SMILES. Activity calls are given as the source filed them. No rule for the calls is given here.

The test system of the data set is CCRIS mutagenicity, Ames/micronucleus/aberration tests. The data set is described as follows: CCRIS mutagenicity studies.
[1] abbreviates: Test System: AMES SALMONELLA TYPHIMURIUM, Strain/Indicator: TA98, Metabolic Activation: NONE, Method: STANDARD PLATE.
Setting [2] is: Test System: AMES SALMONELLA TYPHIMURIUM, Strain/Indicator: TA98, Metabolic Activation: RAT, LIVER, S-9, AROCLOR 1254, Method: STANDARD PLATE.
[3] abbreviates: Test System: AMES SALMONELLA TYPHIMURIUM, Strain/Indicator: TA100, Metabolic Activation: NONE, Method: STANDARD PLATE.
Setting [4] is: Test System: AMES SALMONELLA TYPHIMURIUM, Strain/Indicator: TA100, Metabolic Activation: RAT, LIVER, S-9, AROCLOR 1254, Method: STANDARD PLATE.
Setting [5] is: Test System: AMES SALMONELLA TYPHIMURIUM, Strain/Indicator: TA98, Metabolic Activation: NONE, Method: PREINCUBATION

With `COC(=O)Nc1nc2ccc(Sc3ccccc3)cc2[nH]1`, the mutagenic call by setting is: (Test System: AMES SALMONELLA TYPHIMURIUM, Strain/Indicator: TA97, Metabolic Activation: NONE, Method: STANDARD PLATE) “inactive; negative”; (Test System: AMES SALMONELLA TYPHIMURIUM, Strain/Indicator: TA97, Metabolic Activation: RAT, LIVER, S-9, AROCLOR 1254, Method: STANDARD PLATE) “inactive; negative”; under setting [1], “inactive; negative”; under setting [2], “inactive; negative”; under setting [3], “inactive; negative”; under setting [4], “inactive; negative”. The mutagenic call runs as follows: (Test System: AMES SALMONELLA TYPHIMURIUM, Strain/Indicator: TA102, Metabolic Activation: NONE, Method: STANDARD PLATE) “inactive; negative”; (Test System: AMES SALMONELLA TYPHIMURIUM, Strain/Indicator: TA102, Metabolic Activation: RAT, LIVER, S-9, AROCLOR 1254, Method: STANDARD PLATE) “inactive; negative”.
For `O=c1cccc2cc(O)c(O)c(O)c2c1O`, where the note is “Test System: AMES SALMONELLA TYPHIMURIUM, Strain/Indicator: TA2638, Metabolic Activation: S-9, Method: STANDARD PLATE”, the mutagenic call was “inactive; negative”.
On to `O=c1c(O)c(-c2ccc(O)c(O)c2)oc2cc(O)ccc12`, for which the mutagenic call was “active; positive (structural changes)” (End Point: IN VITRO CHROMOSOMAL ABERRATIONS, Test System: HUMAN HL60 CELLS, Metabolic Activation: NONE); “active; positive (structural changes)” (End Point: IN VITRO CHROMOSOMAL ABERRATIONS, Test System: HUMAN TK6 CELLS, Metabolic Activation: NONE); “active; positive” (End Point: IN VITRO MICRONUCLEUS, Test System: HUMAN HL60 CELLS, Metabolic Activation: NONE); “active; positive” (End Point: IN VITRO MICRONUCLEUS, Test System: HUMAN TK6 CELLS, Metabolic Activation: NONE); “inactive; negative” (Test System: Ames Salmonella typhimurium, Strain/Indicator: TA102, Metabolic Activation: None, Method: Preincubation); “inactive; negative” (Test System: Ames Salmonella typhimurium, Strain/Indicator: TA102, Metabolic Activation: Rat, Liver, S-9, Aroclor 1254 in 0.154 M KCl, Method: Preincubation).
As for `CCC[C@]1(O)CC[C@H]2[C@@H]3CC[C@H]4CC(=O)C[C@H](C)[C@]4(C)[C@H]3CC[C@@]21C`, the mutagenic call is “inactive; negative” (End Point: IN VITRO CHROMOSOMAL ABERRATIONS, Test System: HUMAN PERIPHERAL LYMPHOCYTES, Metabolic Activation: NONE); “inactive; negative” (End Point: IN VITRO CHROMOSOMAL ABERRATIONS, Test System: HUMAN PERIPHERAL LYMPHOCYTES, Metabolic Activation: RAT, LIVER, S-9, AROCLOR 1254); “inactive; negative” (End Point: IN VIVO MICRONUCLEUS, Test System: BONE MARROW POLYCHROMATIC ERYTHROCYTES, Species: MOUSE, Strain/Sex: NMRI/MALE, FEMALE, Route: SUBCUTANEOUS INJECTION); “inactive; negative” under setting [5]; “inactive; negative” under setting [1]; “inactive; negative” (Test System: AMES SALMONELLA TYPHIMURIUM, Strain/Indicator: TA98, Metabolic Activation: RAT, LIVER, S-9, AROCLOR 1254, Method: PREINCUBATION). Also, the mutagenic call by setting is: under setting [2], “inactive; negative”; (Test System: AMES SALMONELLA TYPHIMURIUM, Strain/Indicator: TA100, Metabolic Activation: NONE, Method: PREINCUBATION) “inactive; negative”; under setting [3], “inactive; negative”; (Test System: AMES SALMONELLA TYPHIMURIUM, Strain/Indicator: TA100, Metabolic Activation: RAT, LIVER, S-9, AROCLOR 1254, Method: PREINCUBATION) “inactive; negative”; under setting [4], “inactive; negative”; (Test System: AMES SALMONELLA TYPHIMURIUM, Strain/Indicator: TA1535, Metabolic Activation: NONE, Method: PREINCUBATION) “inactive; negative”. Besides, the mutagenic call by setting is: (Test System: AMES SALMONELLA TYPHIMURIUM, Strain/Indicator: TA1535, Metabolic Activation: NONE, Method: STANDARD PLATE) “inactive; negative”; (Test System: AMES SALMONELLA TYPHIMURIUM, Strain/Indicator: TA1535, Metabolic Activation: RAT, LIVER, S-9, AROCLOR 1254, Method: PREINCUBATION) “inactive; negative”; (Test System: AMES SALMONELLA TYPHIMURIUM, Strain/Indicator: TA1535, Metabolic Activation: RAT, LIVER, S-9, AROCLOR 1254, Method: STANDARD PLATE) “inactive; negative”; (Test System: AMES SALMONELLA TYPHIMURIUM, Strain/Indicator: TA1537, Metabolic Activation: NONE, Method: PREINCUBATION) “inactive; negative”; (Test System: AMES SALMONELLA TYPHIMURIUM, Strain/Indicator: TA1537, Metabolic Activation: NONE, Method: STANDARD PLATE) “inactive; negative”; (Test System: AMES SALMONELLA TYPHIMURIUM, Strain/Indicator: TA1537, Metabolic Activation: RAT, LIVER, S-9, AROCLOR 1254, Method: PREINCUBATION) “inactive; negative”. Further, the mutagenic call is “inactive; negative” (Test System: AMES SALMONELLA TYPHIMURIUM, Strain/Indicator: TA1537, Metabolic Activation: RAT, LIVER, S-9, AROCLOR 1254, Method: STANDARD PLATE); “inactive; negative” (Test System: AMES SALMONELLA TYPHIMURIUM, Strain/Indicator: TA1538, Metabolic Activation: NONE, Method: PREINCUBATION); “inactive; negative” (Test System: AMES SALMONELLA TYPHIMURIUM, Strain/Indicator: TA1538, Metabolic Activation: NONE, Method: STANDARD PLATE); “inactive; negative” (Test System: AMES SALMONELLA TYPHIMURIUM, Strain/Indicator: TA1538, Metabolic Activation: RAT, LIVER, S-9, AROCLOR 1254, Method: PREINCUBATION); “inactive; negative” (Test System: AMES SALMONELLA TYPHIMURIUM, Strain/Indicator: TA1538, Metabolic Activation: RAT, LIVER, S-9, AROCLOR 1254, Method: STANDARD PLATE); “inactive; negative” (Test System: CHINESE HAMSTER V-79, Strain/Indicator: V-79 (HGPRT)/6-THIOGUANINE, Metabolic Activation: NONE). Under “Test System: CHINESE HAMSTER V-79, Strain/Indicator: V-79 (HGPRT)/6-THIOGUANINE, Metabolic Activation: RAT, LIVER, S-9, AROCLOR 1254”, the mutagenic call was “inactive; negative”.
`CCC(=O)N(O)c1ccc(-c2ccccc2)cc1`: the mutagenic call is “inactive; negative” under setting [5]; “inactive; negative” (Test System: AMES SALMONELLA TYPHIMURIUM, Strain/Indicator: TA98, Metabolic Activation: RAT, LIVER, CYTOSOL, Method: PREINCUBATION); “active; positive” (Test System: AMES SALMONELLA TYPHIMURIUM, Strain/Indicator: TA98, Metabolic Activation: RAT, LIVER, MICROSOMES, Method: PREINCUBATION).
With `C[C@H](CCC(=O)O)[C@H]1CC[C@H]2[C@@H]3CC[C@@H]4C[C@H](O)CC[C@]4(C)[C@H]3C[C@H](O)[C@]12C`, the mutagenic call under setting [5] was “inactive; negative”; the mutagenic call (Test System: AMES SALMONELLA TYPHIMURIUM, Strain/Indicator: TA98, Method: PREINCUBATION) was “inactive; negative”; the mutagenic call under setting [3] was “inactive; negative”; the mutagenic call under setting [4] is “inactive; negative”.
Turning to `CC1=C(/C=C/C(C)=C/C=C/C(C)=C/C=C/C=C(C)/C=C/C=C(C)/C=C/C2=C(C)C(=O)CCC2(C)C)C(C)(C)CCC1=O`, the mutagenic call was “inactive; negative” under setting [1], “inactive; negative” under setting [2], “inactive; negative” under setting [3] and “inactive; negative” under setting [4].
